The values below are quoted from earlier work in US20260345609A1, “METHODS FOR PROMOTING PERSISTENCE OF CELL THERAPY” (Legend Biotech Ireland Limited, priority 2022, published 2026).

The conditions of the data set: cited from earlier work.

Where two headings read alike, the source gives them in different places.

For `CC[C@]1(O)C[C@H]2CN(CCc3c([nH]c4ccccc34)[C@@](C(=O)OC)(c3cc4c(cc3OC)N(C)[C@H]3[C@@](O)(C(=O)OC)[C@H](OC(C)=O)[C@]5(CC)C=CCN6CC[C@]43[C@@H]65)C2)C1` [vinblastine], the Half-life (human, in vivo) is 24.8 h.

Consider `Nc1nc(F)nc2c1ncn2[C@@H]1O[C@H](CO)[C@@H](O)[C@@H]1O` [fludarabine], for which the Half-life (human, in vivo) is reported as 20 h.

For `COc1cccc2c1C(=O)c1c(O)c3c(c(O)c1C2=O)C[C@@](O)(C(=O)CO)C[C@@H]3O[C@H]1C[C@H](N)[C@H](O)[C@H](C)O1` [Doxorubicin], the Half-life (human, in vivo) is 1 to 3 h.

In the case of `CC(=O)O[C@H]1C(=O)[C@@]2(C)[C@H]([C@H](OC(=O)c3ccccc3)[C@]3(O)C[C@H](OC(=O)[C@H](O)[C@@H](NC(=O)c4ccccc4)c4ccccc4)C(C)=C1C3(C)C)[C@]1(OC(C)=O)CO[C@@H]1C[C@@H]2O` [Paclitaxel], the Half-life (human, in vivo) was 5.8 h.

For `Nc1nc(Cl)nc2c1ncn2[C@H]1C[C@H](O)[C@@H](CO)O1` [Cladribine], where the note is “human, in vivo”, the Half-life is given as 10 h.

Regarding `N[C@@H]1CCCC[C@H]1N.[Pt+2]` [Oxaliplatin], the Half-life (human, in vivo) is 0.167 to 0.417 h.

`O=P1(N(CCCl)CCCl)NCCCO1` (centres unmarked) [cyclophosphamide]: the Half-life (human, in vivo) is 3 to 12 h.

`Nc1ccn([C@@H]2O[C@H](CO)[C@@H](O)C2(F)F)c(=O)n1` [Gemcitabine]: the Half-life entry by setting is: (Short infusion) “Short infusion: 32-94 min;”; (long infusion) “long infusion: 245-638 min”.

For the compound `O=c1[nH]cc(F)c(=O)[nH]1` [Fluorouracil], the Half-life (human, in vivo) was 0.267 h.

For the compound `CN(C)/N=N/c1[nH]cnc1C(N)=O` [Dacarbazine], for the setting “human, in vivo”, the Half-life is recorded as 5 h.
